Read-outs that look alike come from different tables or passages of the source.
Tests used:
hGLP-1R = hGLP-1R (Homo sapiens, UniProt P43220); test: Functional cAMP formation (HTRF) in HEK-293 clonal cells expressing hGLP-1R, 0.1% bovine casein, without or with 1.0% human serum albumin; format: cell-based; set-up: expressed in transfected cells; conditions: geometric mean
Outline: (§1)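 Cells were stimulated with peptide for 30 min at 37° C, then lysed in buffer carrying cAMP-d2 and anti-cAMP Eu3+-cryptate for a competitive HTRF read after at least 60 min at room temperature. The 665/620 nm ratio was converted to nM cAMP against a standard curve.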

[1] = target: T1, human GLP-1 receptor (hGLP-1R) (Homo sapiens, UniProt P43220); test: [125I]-GLP-1 binding, SPA with membranes of HEK293 cells expressing hGLP-1R
T1 construct: expressed in transfected cells; crude membranes
T1 sequence (P43220 24-463): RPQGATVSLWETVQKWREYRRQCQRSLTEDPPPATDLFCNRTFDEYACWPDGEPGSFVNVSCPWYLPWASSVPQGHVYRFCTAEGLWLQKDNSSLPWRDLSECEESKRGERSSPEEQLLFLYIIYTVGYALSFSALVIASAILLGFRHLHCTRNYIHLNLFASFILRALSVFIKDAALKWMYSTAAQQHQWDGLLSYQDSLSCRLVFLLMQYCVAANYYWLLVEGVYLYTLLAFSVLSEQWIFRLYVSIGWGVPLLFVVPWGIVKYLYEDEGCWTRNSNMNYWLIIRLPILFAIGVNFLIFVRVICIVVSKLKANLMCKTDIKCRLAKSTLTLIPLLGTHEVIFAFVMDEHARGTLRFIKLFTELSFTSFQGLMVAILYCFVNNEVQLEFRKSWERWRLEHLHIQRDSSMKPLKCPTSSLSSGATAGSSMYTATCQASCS

hGCGR = target: T2, hGCGR (Homo sapiens, UniProt P47871); test: Functional cAMP formation (HTRF) in HEK-293 clonal cells expressing hGCGR, 0.1% bovine casein, without or with 1.0% human serum albumin; format: cell-based; conditions: geometric mean
T2 construct: expressed in transfected cells
T2 sequence (P47871 26-477): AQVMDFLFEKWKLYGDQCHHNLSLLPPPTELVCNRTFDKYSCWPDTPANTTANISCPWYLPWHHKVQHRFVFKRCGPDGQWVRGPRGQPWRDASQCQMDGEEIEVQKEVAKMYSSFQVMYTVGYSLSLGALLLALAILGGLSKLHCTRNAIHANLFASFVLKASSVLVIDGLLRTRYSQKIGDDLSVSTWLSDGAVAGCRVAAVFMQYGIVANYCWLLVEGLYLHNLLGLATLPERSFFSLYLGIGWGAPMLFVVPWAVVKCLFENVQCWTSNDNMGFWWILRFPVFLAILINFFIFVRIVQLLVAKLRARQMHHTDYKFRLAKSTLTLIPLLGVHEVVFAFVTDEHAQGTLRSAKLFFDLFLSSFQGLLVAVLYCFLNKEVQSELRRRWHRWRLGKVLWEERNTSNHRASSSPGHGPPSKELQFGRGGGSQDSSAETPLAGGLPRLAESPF
Outline: as §1

hGIPR = target: T3, hGIPR (Homo sapiens, UniProt P48546); test: Functional cAMP formation (HTRF) in HEK-293 clonal cells expressing hGIPR, 0.1% bovine casein, without or with 1.0% human serum albumin; format: cell-based; conditions: for EC50: geometric mean
T3 construct: expressed in transfected cells
T3 sequence (P48546 22-466): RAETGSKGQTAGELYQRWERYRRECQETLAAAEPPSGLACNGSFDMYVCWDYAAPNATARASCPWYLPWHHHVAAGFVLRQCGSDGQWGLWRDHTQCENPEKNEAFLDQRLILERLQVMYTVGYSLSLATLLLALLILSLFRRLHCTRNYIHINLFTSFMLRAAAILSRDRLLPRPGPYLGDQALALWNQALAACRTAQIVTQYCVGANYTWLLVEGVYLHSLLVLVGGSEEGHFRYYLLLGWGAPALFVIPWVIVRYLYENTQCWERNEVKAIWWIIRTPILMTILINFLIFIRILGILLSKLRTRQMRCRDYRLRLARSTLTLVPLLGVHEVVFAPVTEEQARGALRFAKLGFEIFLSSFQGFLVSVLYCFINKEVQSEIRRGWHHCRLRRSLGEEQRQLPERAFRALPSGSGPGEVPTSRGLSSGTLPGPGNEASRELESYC
Outline: as §1

Chain of hGLP-1R (P43220 24-463): as the sequence (P43220 24-463) above

SMILES | EC50 (hGLP-1R; 0.1% bovine casein and 1.0% human serum albumin, 37° C., read-out: hGLP-1R EC50, nM (SEM, n)) [nM] | EC50 (hGLP-1R; cAMP, incubated at 37° C., 0.1% bovine casein (no human serum albumin), read-out: hGLP-1R EC50, nM (SEM, n)) [nM] | Ki ([1]; human GLP-1R, geometric mean (SEM, n), read-out: Binding Affinity Ki, nM (SEM, n) hGLP-1R) [nM] | EC50 (hGCGR; 0.1% bovine casein and 1.0% human serum albumin, 37° C., read-out: hGCGR EC50, nM (SEM, n)) [nM] | EC50 (hGCGR; cAMP, incubated at 37° C., 0.1% bovine casein (no human serum albumin), read-out: hGCGR EC50, nM (SEM, n)) [nM] | EC50 (hGIPR; 0.1% bovine casein and 1.0% human serum albumin, 37° C., read-out: hGIPR EC50, nM (SEM, n)) [nM] | Emax (hGIPR; HEK293, 0.1% bovine casein and 1.0% human serum albumin, 37° C., percent of maximal response to GIP(1-42)NH2, read-out: hGIPR Emax, % ± SEM) [%] | EC50 (hGIPR; cAMP, incubated at 37° C., 0.1% bovine casein (no human serum albumin), read-out: hGIPR EC50, nM (SEM, n)) [nM] | EC50 (hGLP-1R; hGLP-1R EC50, nM (SEM, n), cAMP, incubated at 37° C., 0.1% bovine casein (no human serum albumin)) [nM] | Ki [1] [nM] | EC50 (hGCGR; hGCGR EC50, nM (SEM, n), 0.1% bovine casein and 1.0% human serum albumin, 37° C.) [nM] | EC50 (hGCGR; hGCGR EC50, nM (SEM, n), cAMP, incubated at 37° C., 0.1% bovine casein (no human serum albumin)) [nM] | Emax (hGIPR; HEK293, read-out: hGIPR Emax, % ± SEM, 0.1% bovine casein and 1.0% human serum albumin, 37° C., percent of maximal response to GIP(1-42)NH2) [%] | Emax (hGIPR; HEK293, read-out: hGIPR Emax, % ± SEM, percent of maximal response to GIP(1-42)NH2, 37° C., 0.1% bovine casein, arithmetic mean) [%] | EC50 (hGIPR; hGIPR EC50, nM (SEM, n), cAMP, incubated at 37° C., 0.1% bovine casein (no human serum albumin)) [nM]
CCCCCCCCCCCC(=O)N[C@@H](CCC(=O)NCCOCCOCC(=O)NCCOCCOCC(=O)NCCCC[C@H](NC(=O)[C@H](CCCN)NC(=O)[C@H](CC(=O)O)NC(=O)[C@H](CC(C)C)NC(=O)[C@](C)(CC(C)C)NC(=O)[C@@H](NC(=O)[C@H](CO)NC(=O)[C@H](Cc1ccncc1)NC(=O)[C@H](CC(=O)O)NC(=O)[C@H](CO)NC(=O)[C@@H](NC(=O)[C@](C)(Cc1ccccc1F)NC(=O)[C@@H](NC(=O)CNC(=O)[C@H](CCC(=O)O)NC(=O)C(C)(C)NC(=O)[C@@H](N)Cc1ccc(O)cc1)[C@@H](C)O)[C@@H](C)O)[C@@H](C)CC)C(=O)N[C@@H](C)C(=O)N[C@@H](CCC(N)=O)C(=O)NC(C)(C)C(=O)N[C@@H](CCCCNC(=O)COCCOCCNC(=O)COCCOCCNC(=O)CC[C@H](NC(=O)CCCCCCCCCCC)C(=O)O)C(=O)N[C@@H](Cc1ccccc1)C(=O)N[C@H](C(=O)N[C@H](CCC(=O)O)C(=O)N[C@@](C)(Cc1ccc(O)cc1)C(=O)N[C@@H](CC(C)C)C(=O)N[C@H](C(=O)N[C@@H](CCC(=O)O)C(=O)NCC(=O)NCC(=O)N1CCC[C@H]1C(=O)N[C@@H](CO)C(=O)N[C@@H](CO)C(=O)NCC(=O)N[C@@H](C)C(=O)N1CCC[C@H]1C(=O)N1CCC[C@H]1C(=O)N1CCC[C@H]1C(=O)N[C@@H](CO)C(N)=O)[C@@H](C)CC)[C@@H](C)CC)C(=O)O [Example 137] | 5.02 | 0.134 | 0.25 | > 9950 | > 9950 | 0.728 | 90.3 ± 0.387 | 0.0116 | – | – | – | – | – | – | –
CC[C@H](C)[C@H](NC(=O)[C@H](CCCN)NC(=O)[C@H](CC(=O)O)NC(=O)[C@H](CC(C)C)NC(=O)[C@](C)(CC(C)C)NC(=O)[C@@H](NC(=O)C(C)(C)NC(=O)[C@H](Cc1ccncc1)NC(=O)[C@H](CC(=O)O)NC(=O)[C@H](CO)NC(=O)[C@@H](NC(=O)[C@](C)(Cc1ccccc1F)NC(=O)[C@@H](NC(=O)CNC(=O)[C@H](CCC(=O)O)NC(=O)C(C)(C)NC(=O)[C@@H](N)Cc1ccc(O)cc1)[C@@H](C)O)[C@@H](C)O)[C@@H](C)CC)C(=O)N[C@@H](C)C(=O)N[C@@H](CCC(N)=O)C(=O)NC(C)(C)C(=O)N[C@@H](CCC(=O)O)C(=O)N[C@@H](Cc1ccccc1)C(=O)N[C@H](C(=O)N[C@@H](CCCCNC(=O)COCCOCCNC(=O)COCCOCCNC(=O)CC[C@H](NC(=O)CCCCCCCCCOc1ccc(C(=O)O)cc1)C(=O)O)C(=O)N[C@@](C)(Cc1ccc(O)cc1)C(=O)N[C@@H](CC(C)C)C(=O)N[C@H](C(=O)N[C@@H](CCCCNC(=O)COCCOCCNC(=O)COCCOCCNC(=O)CC[C@H](NC(=O)CCCCCCCCCOc1ccc(C(=O)O)cc1)C(=O)O)C(=O)NCC(=O)NCC(=O)N1CCC[C@H]1C(=O)N[C@@H](CO)C(=O)N[C@@H](CO)C(=O)NCC(=O)N[C@@H](C)C(=O)N1CCC[C@H]1C(=O)N1CCC[C@H]1C(=O)N1CCC[C@H]1C(=O)N[C@@H](CO)C(N)=O)[C@@H](C)CC)[C@@H](C)CC [Example 246] | – | – | – | – | – | – | – | – | 0.441 | 0.557 | > 9950 | > 9950 | 91 | 96.9 | 0.0223

Source: patent US20230265151A1, “GIP/GLP1 CO-AGONIST COMPOUNDS” (priority 2020, published 2023)
